Experimental data published in US5962501A, “Enantiomer of carbazole derivative as 5-HT1-like agonists” (SmithKline Beecham, p.l.c., priority 1992, dated 1999).

Target: T1, 5-HT1 -like receptor (Oryctolagus cuniculus, UniProt P49144)
T1 construct: Arteries were then cut into ring segments (ca 4-5 mm wide) and set up for recording of isometric tension; from tissue; host or cells: rabbit basilar artery rings, endothelium removed
Assay: 5-HT1-like receptor screen, rabbit isolated basilar artery (cumulative concentration-effect curves, isometric tension)
Format: cell-based
Conditions: in presence of ascorbate, indomethacin, cocaine, ketanserin and prazosin
Procedure: 5-HT1 -like Receptor Screen
In brief, rabbits were killed by overdose with anaesthetic (sodium pentobarbitone). The whole brain was quickly removed and immersed in ice cold modified Kreb's solution and the basilar artery removed with the aid of a dissecting microscope. […] The endothelium was removed by a gentle rubbing of the lumen with a fine metal wire. […] The arteries were then placed under a resting force of 3-4 mN maintained at 37° C. and the solution bubbled with 95% O2 /5% CO2.
After tests for initial reactivity with 90 mM KCl depolarising solution and for lack of acetylcholine-induced relaxation of 5-HT ([…]) precontraction, cumulative concentration-effect curves ([…]) to 5-HT were constructed in the presence of ascorbate […], cocaine […], indomethacin […], ketanserin […] and prazosin […].
Following a 45-60 min wash period, cumulative concentration-effect curves to the test compounds or 5-HT (as a time match control) were constructed in the presence of ascorbate, indomethacin, cocaine, ketanserin and prazosin.

T1 sequence (P49144 whole entry): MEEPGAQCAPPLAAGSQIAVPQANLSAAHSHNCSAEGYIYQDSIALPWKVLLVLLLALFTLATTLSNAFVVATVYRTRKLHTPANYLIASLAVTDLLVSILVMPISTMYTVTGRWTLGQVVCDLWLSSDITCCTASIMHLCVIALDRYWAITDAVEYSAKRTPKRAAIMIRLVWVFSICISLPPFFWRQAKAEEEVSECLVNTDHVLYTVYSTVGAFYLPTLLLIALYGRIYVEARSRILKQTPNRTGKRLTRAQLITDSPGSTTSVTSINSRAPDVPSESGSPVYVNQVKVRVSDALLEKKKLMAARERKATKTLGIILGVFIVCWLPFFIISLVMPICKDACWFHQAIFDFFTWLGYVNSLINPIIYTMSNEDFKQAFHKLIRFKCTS

EC50: > 2000 nM
Structure (SMILES): CN[C@H]1CCc2[nH]c3ccc(C(N)=O)cc3c2C1 [Compound B, S-(-)-6-carboxamido-3-N-methylamino-1,2,3,4-tetrahydrocarbazole]
